Calls of active or inactive are those of the source. No cut-off for these calls is given here.
Columns and labels:
Homo sapiens = species on record: Homo sapiens; test: Selectivity ratio of IC50 for recombinant human full length untagged ERbeta expressed in insect cells to IC50 for recombinant human full length untagged ERalpha expressed in insect cells
Mus musculus [1] = test: Anti-osteoporotic activity in Balb/c mouse assessed as decrease in OVX-induced trabecular bone surface in femur at 25 to 100 mg/kg, ip administered for 4 weeks daily by microcomputed tomography; assay type: functional, organism-based
RAW264.7 [2] = test: Inhibition of RANKL-induced osteoclast differentiation in mouse RAW264.7 cells assessed as decrease in TRAP activity at 20 uM after 5 days in presence of ERbeta antagonist PHTPP by microscopy; assay type: functional, cell-based
RAW264.7 [3] = test: Inhibition of RANKL-induced osteoclast differentiation in mouse RAW264.7 cells assessed as TRAP activity after 5 days in presence of PKA inhibitor H89; assay type: functional, cell-based
RAW264.7 [4] = test: Inhibition of RANKL-induced osteoclast differentiation in mouse RAW264.7 cells harboring ERalpha siRNA assessed as decrease in size of TRAP-positive multinucleated cells at 20 uM after 5 days by microscopy; assay type: functional, cell-based
[5] = biological target: T1, Estrogen receptor (Mus musculus) (UniProt P19785); test: Induction of estrogen receptor-mediated AMPKalpha1 activation in mouse RAW264.7 cells at 20 uM in presence of PKA inhibitor H89; assay type: cell-based
T1 sequence (whole entry): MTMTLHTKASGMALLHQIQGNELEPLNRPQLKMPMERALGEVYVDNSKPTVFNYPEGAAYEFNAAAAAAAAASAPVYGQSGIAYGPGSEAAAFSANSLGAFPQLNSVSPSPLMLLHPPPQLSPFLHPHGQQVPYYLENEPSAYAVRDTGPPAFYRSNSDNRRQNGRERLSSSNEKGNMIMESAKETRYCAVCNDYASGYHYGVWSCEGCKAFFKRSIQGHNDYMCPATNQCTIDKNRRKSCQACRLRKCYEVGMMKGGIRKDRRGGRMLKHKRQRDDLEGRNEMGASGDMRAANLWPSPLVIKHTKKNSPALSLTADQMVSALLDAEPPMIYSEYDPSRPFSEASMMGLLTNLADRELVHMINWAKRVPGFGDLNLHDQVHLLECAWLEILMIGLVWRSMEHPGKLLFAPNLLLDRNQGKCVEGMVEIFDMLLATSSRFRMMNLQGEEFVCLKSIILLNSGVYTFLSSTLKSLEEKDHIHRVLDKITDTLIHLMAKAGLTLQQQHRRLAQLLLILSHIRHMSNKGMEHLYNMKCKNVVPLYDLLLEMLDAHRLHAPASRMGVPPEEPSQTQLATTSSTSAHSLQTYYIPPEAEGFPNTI

RAW264.7 [6] = test: Inhibition of RANKL-induced osteoclast differentiation in mouse RAW264.7 cells harboring ERalpha siRNA assessed as decrease in c-Fos mRNA level at 20 uM after 24 hrs by qRT-PCR method; assay type: functional, cell-based
RAW264.7 [7] = test: Inhibition of RANKL-induced osteoclast differentiation in mouse RAW264.7 cells assessed as decrease in TRAP mRNA level at 20 uM after 24 hrs in presence of ERbeta antagonist PHTPP by qRT-PCR method; assay type: functional, cell-based
RAW264.7 [8] = test: Inhibition of RANKL-induced osteoclast differentiation in mouse RAW264.7 cells harboring ERalpha siRNA assessed as decrease in TRAP mRNA level at 20 uM after 24 hrs by qRT-PCR method; assay type: functional, cell-based
Mus musculus [9] = test: Anti-osteoporotic activity in ip dosed OVX-induced bone loss in femur of Balb/c mouse administered for 4 weeks daily by microcomputed tomography; assay type: functional, organism-based
RAW264.7 [10] = test: Inhibition of RANKL-induced PKA phosphorylation in mouse RAW264.7 cells at 10 to 40 uM after 24 hrs by Western blot analysis; assay type: cell-based
RAW264.7 [11] = test: Inhibition of RANKL-induced osteoclast differentiation in mouse RAW264.7 cells assessed as decrease in number of TRAP-positive multinucleated cells at 20 uM after 5 days in presence of ERbeta antagonist PHTPP by microscopy; assay type: functional, cell-based
Mus musculus [12] = test: Anti-osteoporotic activity in Balb/c mouse assessed as inhibition of OVX-induced serum NTx level at 25 to 100 mg/kg, ip administered for 4 weeks daily by ELISA; assay type: functional, organism-based
Estrogen receptor = biological target: T2, Estrogen receptor (Homo sapiens, UniProt P03372); test: Inhibition of fluoromone binding to recombinant human full length untagged ERalpha expressed in insect cells after 2 hrs by fluorescence polarization assay
T2 sequence (P03372 whole entry): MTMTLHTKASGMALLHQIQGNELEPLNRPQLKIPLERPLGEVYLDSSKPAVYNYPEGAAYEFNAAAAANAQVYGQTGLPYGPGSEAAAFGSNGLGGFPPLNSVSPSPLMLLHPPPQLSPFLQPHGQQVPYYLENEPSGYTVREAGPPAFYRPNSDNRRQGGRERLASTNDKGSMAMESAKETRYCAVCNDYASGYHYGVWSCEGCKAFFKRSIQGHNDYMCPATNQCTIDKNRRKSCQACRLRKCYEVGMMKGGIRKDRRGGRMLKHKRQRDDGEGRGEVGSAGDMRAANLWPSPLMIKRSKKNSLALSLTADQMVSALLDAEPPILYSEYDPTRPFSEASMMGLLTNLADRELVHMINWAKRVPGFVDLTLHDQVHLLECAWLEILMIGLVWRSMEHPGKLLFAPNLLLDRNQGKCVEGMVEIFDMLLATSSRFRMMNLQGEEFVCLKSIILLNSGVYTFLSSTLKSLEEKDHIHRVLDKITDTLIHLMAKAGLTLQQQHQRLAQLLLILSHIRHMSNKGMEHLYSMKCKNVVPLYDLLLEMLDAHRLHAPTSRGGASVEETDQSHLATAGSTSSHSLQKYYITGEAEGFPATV

RAW264.7 [13] = test: Inhibition of RANKL-induced osteoclast differentiation in mouse RAW264.7 cells harboring ERbeta siRNA assessed as decrease in size of TRAP-positive multinucleated cells at 20 uM after 5 days by microscopy; assay type: functional, cell-based
Mus musculus [14] = test: Anti-osteoporotic activity in Balb/c mouse assessed as inhibition of OVX-mediated decrease in trabecular number in femur at 25 to 100 mg/kg, ip administered for 4 weeks daily by microcomputed tomography; assay type: functional, organism-based
Estrogen receptor beta = Estrogen receptor beta (Homo sapiens, UniProt Q92731); test: Inhibition of fluoromone binding to recombinant human full length untagged ERbeta expressed in insect cells after 2 hrs by fluorescence polarization assay
RAW264.7 [15] = test: Inhibition of RANKL-induced osteoclast differentiation in mouse RAW264.7 cells assessed as decrease in c-Fos mRNA level at 20 uM after 24 hrs in presence of ERalpha antagonist MPP by qRT-PCR method; assay type: functional, cell-based
Mus musculus [16] = test: Anti-osteoporotic activity in Balb/c mouse assessed as decrease in OVX-induced trabecular spacing in femur at 25 to 100 mg/kg, ip administered for 4 weeks daily by microcomputed tomography; assay type: functional, organism-based
RAW264.7 [17] = test: Inhibition of RANKL-induced osteoclast differentiation in mouse RAW264.7 cells harboring ERbeta siRNA assessed as decrease in number of TRAP-positive multinucleated cells at 20 uM after 5 days by microscopy; assay type: functional, cell-based
RAW264.7 [18] = test: Inhibition of NF-kappaB/p38 MAPK signaling pathway in mouse RAW264.7 cells assessed as reduction in RANKL-induced NFATc1 protein expression level after 24 hrs by Western blot method; assay type: cell-based

Sequence of Estrogen receptor beta (Q92731 whole entry): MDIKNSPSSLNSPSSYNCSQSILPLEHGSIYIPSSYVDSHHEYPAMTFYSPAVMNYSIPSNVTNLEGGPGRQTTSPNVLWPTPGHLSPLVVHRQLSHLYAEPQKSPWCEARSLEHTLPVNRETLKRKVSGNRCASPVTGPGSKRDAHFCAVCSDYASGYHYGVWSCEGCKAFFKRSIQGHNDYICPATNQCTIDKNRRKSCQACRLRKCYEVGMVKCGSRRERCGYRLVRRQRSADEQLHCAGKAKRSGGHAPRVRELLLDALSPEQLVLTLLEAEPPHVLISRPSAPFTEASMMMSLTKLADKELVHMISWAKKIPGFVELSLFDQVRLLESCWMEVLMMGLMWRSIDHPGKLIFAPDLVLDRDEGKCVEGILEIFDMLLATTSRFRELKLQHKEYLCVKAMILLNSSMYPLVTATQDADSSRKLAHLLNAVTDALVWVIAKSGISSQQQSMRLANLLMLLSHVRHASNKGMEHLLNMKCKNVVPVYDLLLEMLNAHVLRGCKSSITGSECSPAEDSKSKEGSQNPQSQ

Q: Which results are given for `COc1cc(C2Oc3c(OC)cc(/C=C/CO)cc3C2CO)ccc1O` (stereo unspecified)?
A: Ratio IC50 (Homo sapiens): 4.63; Activity (Mus musculus [1]): Active; inhibition (RAW264.7 [2]): Active; inhibition (RAW264.7 [3]): Active; inhibition (RAW264.7 [4]): inactive; Activity [5]: Active; inhibition (RAW264.7 [6]): inactive; inhibition (RAW264.7 [7]): Active; inhibition (RAW264.7 [8]): inactive; Activity (Mus musculus [9]): Dose-dependent effect; inhibition (RAW264.7 [10]): inactive; inhibition (RAW264.7 [11]): Active; inhibition (Mus musculus [12]): Active; IC50 (Estrogen receptor): 61.9 nM; inhibition (RAW264.7 [13]): Active; inhibition (Mus musculus [14]): Active; IC50 (Estrogen receptor beta): 286 nM; inhibition (RAW264.7 [15]): inactive; Activity (Mus musculus [16]): Active; inhibition (RAW264.7 [17]): Active; inhibition (RAW264.7 [18]): Dose-dependent effect
